Test results taken from patent publication US20150290106A1, “Dentotropic Conjugates and Compositions and Methods of Use Thereof” (BOARD OF REGENTS OF THE UNIVERSITY OF NEBRASKA, priority 2012, published 2015).

Columns and labels:
[1] = Model tooth surface binding experiment (menthol-PPi/hydroxyapatite binding by 1H NMR); details: for speed of binding to HA (time to maximum binding): HA powder, vortex agitation, diphosphate
Procedure: Menthol-PPi (80 mg) was dissolved in deuterium oxide (D2O, 16.1159 g). Two drops (34.7 mg) of acetone was added as an internal reference when using NMR spectroscopy. Four time intervals were chosen for this study, each with three samples for each interval. Into each of twelve microcentrifuge tubes was added 10 mg hydroxyapatite (HA). One by one, […] was added to the tubes and then agitated with a vortex mixer at high speed for the allotted amount of time. Each tube was then centrifuged at 12.000 rpm for one minute. The liquid was then transferred to NMR tubes for analysis. Three blank NMR samples without the influence of HA were prepared for reference, as well as three control samples without pyrophosphate (i.e., menthol only) with HA. The spectra of the blank samples were compared to those of the experimental samples by observing the relative integration areas of the acetone peak vs. the signal from one methyl group of menthol's isopropyl component. No binding is observed without pyrophosphate.
An additional experiment was performed, changing the hydroxyapatite amount while keeping the vortex time fixed at 2 minutes for each sample, simulating the average time a person spends brushing his or her teeth. Menthol-PPi (80 mg) was dissolved in 16.14 g D2O. Two drops (25.7 mg) of acetone were again added as internal reference. One gram of the menthol-PPi solution was added to the HA test tubes just prior to vortex agitation, as before. Samples were again analyzed via ^1H NMR.

[2] = Menthol release in filtered saliva diluted 1:1 with PBS over 24 hours (GC/MS, FIG. 2); assay type: in vitro ADME, human; details: saliva/PBS 1:1, 37° C.
Procedure: FIG. 2 provides a graph of the menthol release after chloroform extraction over the course of 24 hours.
Into several 15-mL glass vials were placed 10 mg of menthol-PPi and 2 mL of fresh saliva. The saliva had been centrifuged to remove any free particles, then filtered through a 0.45 μm syringe filter to rid bacteria. It was then diluted 1:1 by volume with phosphate-buffered saline (PBS). Each sample was placed in a water bath incubator at 37° C., shaking at 40 rpm, for a specific amount of time over the course of 24 hours. One sample was withdrawn at each time interval, and vortexed for 10 seconds after direct addition of 2 mL of chloroform. The mixture was transferred to microcentrifuge tubes, after which each tube was centrifuged at 12,000 rpm for one minute to separate the chloroform phase from the water (saliva/PBS) phase. […] After GC/MS analysis of each sample, the total amount of menthol released was calculated using the integration areas of menthol and neomenthol, simplified into a ratio. […] The absolute amount, in μg, of menthol in each GC/MS vial was determined by multiplying the concentration by 1 mL, the total amount of solution in the vial. Then, the release amount was calculated by taking the previous value and multiplying it by a factor of 4, since the original sample was 2 mL. […]

SMILES	binding to HA ([1]; control samples without pyrophosphate (menthol only) with HA)	HA-Bound Conjugate (% ± σ %) ([1]; 10 mg hydroxyapatite, vortex time 1 min)	HA-Bound Conjugate (% ± σ %) ([1]; 10 mg hydroxyapatite, vortex time 2 min)	HA-Bound Conjugate (% ± σ %) ([1]; 10 mg hydroxyapatite, vortex time 5 min)	HA-Bound Conjugate (% ± σ %) ([1]; 10 mg hydroxyapatite, vortex time 10 min)	HA-Bound Conjugate (% ± σ %) ([1]; 20 mg hydroxyapatite, time fixed at two minutes)	HA-Bound Conjugate (% ± σ %) ([1]; 30 mg hydroxyapatite, time fixed at two minutes)	HA-Bound Conjugate (% ± σ %) ([1]; 40 mg hydroxyapatite, time fixed at two minutes)	speed of binding to HA (time to maximum binding) [1]	speed of binding to HA (time to maximum binding) ([1]; listed as menthol-PPi)	release profile of menthol from the pyrophosphate [2]
CC1CCC(C(C)C)C(O)C1 (centres unmarked) [menthol, reference compound]	No binding	–	–	–	–	–	–	–	–	–	–
CC(C)[C@@H]1CC[C@@H](C)C[C@H]1OC(=O)COP(=O)([O-])OP(=O)([O-])[O-].[Na+].[Na+].[Na+] [Menthol-PPi, sodium 2-((1R,2S,5R)-2-isopropyl-5-methylcyclohexyloxy)-2-oxoethyl diphosphate]	–	27.56 ± 4.44%	25.69 ± 0.77%	28.30 ± 2.70%	28.25 ± 3.04%	33.88 ± 6.32%	45.04 ± 1.34%	54.51 ± 3.65%	within one minute	very quickly	linear in nature
